The results in this text go back to PubChem BioAssay AID256 (DTP/NCI, 2004).

This test has as its system CD2F1 mice, L1210 leukemia ip, survival T/C. The test is described as follows: NCI In Vivo Anticancer Drug Screen. Data for tumor model L1210 Leukemia (intraperitoneal) in CD2F1 (CDF1) mice. The note with it: higher = longer survival. A digest of the protocol: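 Tumor-bearing mice (transplanted tumor) were split into treated and vehicle control groups, and the measured endpoint of each treated group was divided by that of its vehicle controls.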

The mark [1] stands for this setting: endpoint: mean survival time, dose: 100.0 mg/kg/injection, schedule: Q04DX003 (ip), vehicle: saline with Tween-80.
Setting [2] is: endpoint: mean survival time, dose: 200.0 mg/kg/injection, schedule: Q04DX003 (ip), vehicle: saline with Tween-80.
Setting [3] is: endpoint: mean survival time, dose: 400.0 mg/kg/injection, schedule: Q04DX003 (ip), vehicle: saline with Tween-80.
The mark [4] stands for this setting: endpoint: mean survival time, dose: 100.0 mg/kg/injection, schedule: Q01DX009 (ip), vehicle: saline with Tween-80.
[5] abbreviates: endpoint: mean survival time, dose: 200.0 mg/kg/injection, schedule: Q01DX009 (ip), vehicle: saline with Tween-80.
Where [6] appears, read: endpoint: mean survival time, dose: 400.0 mg/kg/injection, schedule: Q01DX009 (ip), vehicle: saline with Tween-80.
[7] abbreviates: endpoint: mean survival time, dose: 100.0 mg/kg/injection, schedule: Q01DX001 (ip), vehicle: saline with Tween-80.
The mark [8] stands for this setting: endpoint: mean survival time, dose: 25.0 mg/kg/injection, schedule: Q04DX003 (ip), vehicle: saline with Tween-80.
Setting [9] is: endpoint: mean survival time, dose: 50.0 mg/kg/injection, schedule: Q04DX003 (ip), vehicle: saline with Tween-80.

“And” between values parts separate entries of the source, which are not always exact repeats. Identical values can stand only once. Inconclusive results and toxic doses are left out.

Regarding `CC(C)C1CCC2=C(CCC3C(C)(C(=O)O)CCCC23C)C1` (centres undefined), the T/C runs as follows: under setting [1], 95 % of control; under setting [2], 88 % of control; under setting [3], 89 % of control.

Take `Cc1ccc(C(=O)c2ccc(C)cc2)cc1`: the T/C (endpoint: mean survival time, dose: 100.0 mg/kg/injection, schedule: Q01DX009 (ip), vehicle: saline) was 90 % of control; the T/C (endpoint: mean survival time, dose: 100.0 mg/kg/injection, schedule: Q04DX002 (ip), vehicle: saline) was 93 % of control; the T/C (endpoint: mean survival time, dose: 200.0 mg/kg/injection, schedule: Q01DX009 (ip), vehicle: saline) was 93 % of control; the T/C (endpoint: mean survival time, dose: 200.0 mg/kg/injection, schedule: Q04DX002 (ip), vehicle: saline) was 95 % of control; the T/C (endpoint: mean survival time, dose: 400.0 mg/kg/injection, schedule: Q01DX009 (ip), vehicle: saline) is 93 % of control; the T/C (endpoint: mean survival time, dose: 400.0 mg/kg/injection, schedule: Q04DX002 (ip), vehicle: saline) was 95 % of control.

For `O=P(N1CCCC1)(N1CCCC1)N1CCCC1.O=[N+]([O-])O.O=[N+]([O-])O.[O]=[U]=[O]`, the T/C (endpoint: mean survival time, dose: 3.12 mg/kg/injection, schedule: Q04DX003 (ip), vehicle: Klucel (hydroxypropylcellulose) (HPC)) is 102 % of control and the T/C (endpoint: mean survival time, dose: 12.5 mg/kg/injection, schedule: Q04DX003 (ip), vehicle: Klucel (hydroxypropylcellulose) (HPC)) was 102 % of control.

On to `COc1cc(C2C3CN(C4CCCCC4)C(=O)C3NN2C(C)=O)ccc1OC(C)=O` (centres undefined), for which the T/C reads like this: under setting [4], 93 % of control; under setting [5], 95 % of control; under setting [6], 95 % of control.

`COc1ccc(CC(=O)Nc2ccc(OC)c(OC)c2)cc1OC`: the T/C is 96 % of control (endpoint: mean survival time, dose: 12.5 mg/kg/injection, schedule: Q01DX009 (ip), vehicle: water); 98 % of control (endpoint: mean survival time, dose: 25.0 mg/kg/injection, schedule: Q01DX009 (ip), vehicle: water); 96 % of control (endpoint: mean survival time, dose: 50.0 mg/kg/injection, schedule: Q01DX009 (ip), vehicle: water); 95 % of control (endpoint: mean survival time, dose: 100.0 mg/kg/injection, schedule: Q01DX009 (ip), vehicle: water); 96 % of control (endpoint: mean survival time, dose: 200.0 mg/kg/injection, schedule: Q01DX009 (ip), vehicle: water).

For the molecule `O=Cc1[nH]c(=S)[nH]c(=O)c1Cc1ccc(Cl)cc1`, the T/C under setting [1] is 104 % of control.

Turning to `CCC1(C)CCC2(C)C(CCC3C2CCCC3(C)CO)C1` (centres undefined), the T/C was 94 % of control under setting [7]; 88 % of control (endpoint: mean survival time, dose: 200.0 mg/kg/injection, schedule: Q01DX001 (ip), vehicle: saline with Tween-80); 96 % of control (endpoint: mean survival time, dose: 400.0 mg/kg/injection, schedule: Q01DX001 (ip), vehicle: saline with Tween-80).

On to `COc1cc(Cl)ccc1NC(=O)Nc1ccc(C(=O)O)cc1`, for which the T/C was 95 % of control (endpoint: mean survival time, dose: 50.0 mg/kg/injection, schedule: Q01DX009 (ip), vehicle: saline with Tween-80); 95 % of control under setting [4]; 91 % of control under setting [5].

Regarding `CNC1C(CO)OC(n2cnc3c(N)ncnc32)C1O` (centres undefined), the T/C is 106 % of control (endpoint: mean survival time, dose: 75.0 mg/kg/injection, schedule: Q01DX001 (ip), vehicle: saline); 103 % of control (endpoint: mean survival time, dose: 150.0 mg/kg/injection, schedule: Q01DX001 (ip), vehicle: saline); 109 % of control (endpoint: mean survival time, dose: 300.0 mg/kg/injection, schedule: Q01DX001 (ip), vehicle: saline).

Consider `COC(=O)NC(S(=O)(=O)O)S(=O)(=O)O`, for which the T/C (endpoint: mean survival time, dose: 100.0 mg/kg/injection, schedule: Q01DX001 (ip), vehicle: saline) was 108 % of control; the T/C (endpoint: mean survival time, dose: 200.0 mg/kg/injection, schedule: Q01DX001 (ip), vehicle: saline) is 101 % of control; the T/C (endpoint: mean survival time, dose: 400.0 mg/kg/injection, schedule: Q01DX001 (ip), vehicle: saline) is 108 % of control.

`O=C1CC(c2ccc([N+](=O)[O-])cc2)=Nc2ccccc2N1`: the T/C runs as follows: under setting [4], 102 % of control; under setting [5], 101 % of control; under setting [6], 96 % of control.

Consider `CC(=O)SCCC(=O)O`, for which the T/C runs as follows: (endpoint: mean survival time, dose: 25.0 mg/kg/injection, schedule: Q04DX003 (ip), vehicle: saline) 96 % of control; (endpoint: mean survival time, dose: 50.0 mg/kg/injection, schedule: Q04DX003 (ip), vehicle: saline) 104 % of control.

As to `CCC(=O)Nc1cc([N+](=O)[O-])cc([N+](=O)[O-])c1`, the T/C was 105 % of control (endpoint: mean survival time, dose: 100.0 mg/kg/injection, schedule: Q04DX002 (ip), vehicle: saline with Tween-80) and 100 % of control (endpoint: mean survival time, dose: 200.0 mg/kg/injection, schedule: Q04DX002 (ip), vehicle: saline with Tween-80).

Take `Cc1ccc(S(=O)(=O)N2CCC2)cc1`: the T/C is, setting by setting: under setting [4], 98 % of control; under setting [1], 100 % of control; under setting [5], 102 % of control; under setting [2], 100 % of control; under setting [6], 96 % of control; under setting [3], 97 % of control.

Regarding `CC1CCCN(N=Nc2ccccc2-c2nc(N)c3ccccc3n2)C1` (centres undefined), the T/C reads like this: (endpoint: mean survival time, dose: 100.0 mg/kg/injection, schedule: Q04DX002 (ip), vehicle: Klucel (hydroxypropylcellulose) (HPC)) 88 % of control; (endpoint: mean survival time, dose: 200.0 mg/kg/injection, schedule: Q04DX002 (ip), vehicle: Klucel (hydroxypropylcellulose) (HPC)) 92 % of control; (endpoint: mean survival time, dose: 400.0 mg/kg/injection, schedule: Q04DX002 (ip), vehicle: Klucel (hydroxypropylcellulose) (HPC)) 95 % of control.

In the case of `C=CCNC(=O)OCC`, the T/C was 100 % of control under setting [4] and 98 % of control under setting [5].

For `Cc1[nH]c(=O)c(C(=O)O)c(C)c1[N+](=O)[O-]`, the T/C reads like this: under setting [1], 96 % of control; under setting [2], 94 % of control; under setting [3], 96 % of control.

In the case of `CC1CC(C)(C)[N+](C)=C(CCc2ccccc2)O1` (centres undefined), under setting [7], the T/C was 93 % of control.

Regarding `O=C(NC(NC(=O)c1ccc(Cl)cc1)C(Cl)(Cl)Cl)c1ccc(Cl)cc1`, the T/C under setting [8] is 98 % of control, the T/C under setting [9] was 88 % of control and the T/C under setting [1] is 90 % of control.

On to `COc1c(OC(C)=O)ccc(/C=C2\COC(C)=N2)c1[N+](=O)[O-]`, for which the T/C was 96 % of control under setting [1], 102 % of control under setting [2] and 92 % of control under setting [3].

In the case of `ClC(c1ccccc1)C(Cl)c1ccccc1` (centres undefined), the T/C (endpoint: mean survival time, dose: 3.13 mg/kg/injection, schedule: Q01DX009 (ip), vehicle: saline with Tween-80) is 102 % of control; the T/C (endpoint: mean survival time, dose: 6.25 mg/kg/injection, schedule: Q01DX009 (ip), vehicle: saline with Tween-80) was 102 % of control; the T/C (endpoint: mean survival time, dose: 12.5 mg/kg/injection, schedule: Q01DX009 (ip), vehicle: saline with Tween-80) is 91 % of control and 95 % of control.

As to `NN1C(=O)Cc2ccccc2C1=O`, the T/C under setting [4] was 103 % of control, the T/C under setting [5] was 109 % of control and the T/C under setting [6] was 105 % of control.

On to `O=C(C1CO1)C(Cl)(Cl)Cl` (centres undefined), for which the T/C was 111 % of control (endpoint: median survival time, dose: 12.0 mg/kg/injection, schedule: Q01DX009 (ip), vehicle: saline); 108 % of control (endpoint: median survival time, dose: 25.0 mg/kg/injection, schedule: Q01DX009 (ip), vehicle: saline); 117 % of control (endpoint: median survival time, dose: 50.0 mg/kg/injection, schedule: Q01DX009 (ip), vehicle: saline).

With `CC(=O)NC/C(C)=N/Nc1ccc([N+](=O)[O-])cc1[N+](=O)[O-]`, the T/C under setting [8] is 93 % of control, the T/C under setting [9] was 87 % of control and the T/C under setting [1] is 91 % of control.

Regarding `CC(C)CCCC(C)C1CCC2C3CC=C4CC(OCCC(C)C)CCC4(C)C3CCC12C` (centres undefined), the T/C was 97 % of control under setting [1], 95 % of control under setting [2] and 88 % of control under setting [3].

In the case of `BrCc1cccc2cccnc12`, the T/C under setting [4] was 88 % of control; the T/C (endpoint: median survival time, dose: 50.0 mg/kg/injection, schedule: Q04DX003 (ip), vehicle: saline with Tween-80) is 88 % of control; the T/C (endpoint: median survival time, dose: 100.0 mg/kg/injection, schedule: Q04DX003 (ip), vehicle: saline with Tween-80) is 88 % of control.

As to `Cc1c([C@H](C)[C@@H]2NC[C@@H](C)C[C@H]2O)ccc2c1C[C@H]1[C@H]2CC=C2C[C@@H](O)CC[C@@]21C`, the T/C by setting is: (endpoint: mean survival time, dose: 2.5 mg/kg/injection, schedule: Q01DX009 (ip), vehicle: Klucel (hydroxypropylcellulose) (HPC)) 96 % of control; (endpoint: mean survival time, dose: 5.0 mg/kg/injection, schedule: Q01DX009 (ip), vehicle: Klucel (hydroxypropylcellulose) (HPC)) 102 % of control.

Consider `c1ccc([CH2][Pb]([c]2ccccc2)([c]2ccccc2)[c]2ccccc2)cc1`, for which the T/C is 100 % of control under setting [1], 97 % of control under setting [2] and 91 % of control under setting [3].

On to `O=C(Nc1ccccc1)Nc1ccccc1F`, for which the T/C is, setting by setting: under setting [4], 95 % of control; under setting [5], 113 % of control; under setting [6], 98 % of control.

For `COC(=O)CC1(C)C(=O)CCC2(C)C1=CCc1ccc(OC)cc12` (centres undefined), the T/C is 102 % of control (endpoint: mean survival time, dose: 100.0 mg/kg/injection, schedule: Q01DX001 (sc), vehicle: steriod suspending solution); 96 % of control (endpoint: mean survival time, dose: 200.0 mg/kg/injection, schedule: Q01DX001 (sc), vehicle: steriod suspending solution); 101 % of control (endpoint: mean survival time, dose: 400.0 mg/kg/injection, schedule: Q01DX001 (sc), vehicle: steriod suspending solution).
